Where two headings read alike, the source gives them in different places.
What was measured:
[1] = target: T1, GP of E. coli (Escherichia coli, UniProt P0AC86, E280D/L281V); assay: Substrate specificity of GP of E. coli (products by HPLC with amperometric detection); assay type: biochemical
T1 construct: His tag (pET-15b) (N); made in house; host or cells: E. coli BL21 (DE3) C43 transformed with pET15b-glgP (CECT 7071)
Description: The enzymatic reactions were carried out at 37° C. GP activities were measured in the sense of the analysed polyglucan degradation. […] The reaction was stopped after boiling for 2 minutes and centrifuging at 30,000 g for 20 minutes. The existing released G1P in the supernatant was determined by any of the following methods: • By spectrophotometry. 300 μL of mixture containing Hepes 50 mM pH 7, EDTA 1 mM, MgCl2 2 mM, KCl 15 mM, NAD^+ 0.6 mM, a unit of phosphoglucomutase and another of glucose-6-phosphate dehydrogenase of Leuconostoc mesenteroides, and 30 μL of supernatant resulting from step one were incubated for 20 minutes. The production of NADH was monitored at 340 nm using a Multiskan EX spectrophotometer (Labsystems). […] 40 μL of the supernatant from step 1 were subjected to high affinity liquid chromatography using a DX-500 Dionex system fitted to a Carbo-Pac PA10 column and amperometric detection.

[2] = target: T1, GP of E. coli; assay type: biochemical
Description: The enzymatic reactions were carried out at 37° C. GP activities were measured in the sense of the analysed polyglucan degradation. In a first step, 50 μL of reaction mixture consisting of 50 mM HEPES (pH 7.5), 30 mM phosphate buffer (pH 7.5), polyglucan (equivalent to 10 mM glucose) and protein extract, were incubated for 15 minutes. The reaction was stopped after boiling for 2 minutes and centrifuging at 30,000 g for 20 minutes. The existing released G1P in the supernatant was determined by any of the following methods: • By spectrophotometry. 300 μL of mixture containing Hepes 50 mM pH 7, EDTA 1 mM, MgCl2 2 mM, KCl 15 mM, NAD^+ 0.6 mM, a unit of phosphoglucomutase and another of glucose-6-phosphate dehydrogenase of Leuconostoc mesenteroides, and 30 μL of supernatant resulting from step one were incubated for 20 minutes. The production of NADH was monitored at 340 nm using a Multiskan EX spectrophotometer (Labsystems). […] 40 μL of the supernatant from step 1 were subjected to high affinity liquid chromatography using a DX-500 Dionex system fitted to a Carbo-Pac PA10 column and amperometric detection.
The unit (U) is defined as the amount of enzyme that catalyzes the production of 1 μmol of product per minute.

[3] = glucan 5 mM glucose, 30 mM Pi, 3 U recombinant GP, 3 hours, 37° C.
[4] = effector 2 mM, GP activity, no effector = 100
[5] = effector 3 mM, GP activity, no effector = 100
[6] = cell without unit, glucan 5 mM glucose, 3 U recombinant GP, 3 hours, 37° C.

T1 sequence (P0AC86 other isoform, or with tags, fused parts or gaps E280D/L281V): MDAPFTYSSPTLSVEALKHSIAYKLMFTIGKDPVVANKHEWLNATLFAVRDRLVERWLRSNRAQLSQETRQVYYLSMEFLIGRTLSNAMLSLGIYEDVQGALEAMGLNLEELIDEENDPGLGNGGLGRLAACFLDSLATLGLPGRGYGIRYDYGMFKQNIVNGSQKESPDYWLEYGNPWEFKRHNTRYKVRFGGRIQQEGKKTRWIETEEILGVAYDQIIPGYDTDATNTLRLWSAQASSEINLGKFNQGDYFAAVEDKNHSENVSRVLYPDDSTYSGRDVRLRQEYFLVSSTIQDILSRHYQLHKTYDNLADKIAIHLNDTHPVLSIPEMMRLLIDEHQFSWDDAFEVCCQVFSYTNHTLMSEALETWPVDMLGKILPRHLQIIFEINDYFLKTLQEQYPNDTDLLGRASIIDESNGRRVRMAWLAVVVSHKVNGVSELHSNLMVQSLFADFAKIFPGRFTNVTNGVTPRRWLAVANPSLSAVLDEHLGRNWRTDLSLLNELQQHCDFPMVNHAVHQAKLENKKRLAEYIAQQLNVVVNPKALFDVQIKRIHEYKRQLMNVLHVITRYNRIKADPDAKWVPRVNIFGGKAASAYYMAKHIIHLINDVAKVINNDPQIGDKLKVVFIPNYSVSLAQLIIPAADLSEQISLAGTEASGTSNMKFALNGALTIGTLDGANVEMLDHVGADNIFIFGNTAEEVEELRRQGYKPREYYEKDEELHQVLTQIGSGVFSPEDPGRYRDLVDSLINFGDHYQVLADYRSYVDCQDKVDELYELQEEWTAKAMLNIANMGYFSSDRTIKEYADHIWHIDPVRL

Molecule: OC[C@H]1O[C@H](O[C@H]2[C@H](O)[C@@H](O)C(O)O[C@@H]2CO)[C@H](O)[C@@H](O)[C@@H]1O (mixture of isomers) [Maltose]
- Recognition as substrate by the GP of E. coli [1]: does not act on
- Products: G1P [1, 3]: b.d.l.
- Products: Maltose [1, 3]: 5 mM

Molecule: O=C(O)[C@H](O)COP(=O)(O)O [3-phosphoglycerate]
- Inhibition of the GP of E. coli [2]: not to be inhibited
- Activity (U/mg protein) ([2]; effector 2 mM): 8.9 U/mg protein
- % control [2, 4]: 111%

Molecule: Nc1ncnc2c1ncn2[C@@H]1O[C@H](COP(=O)(O)OP(=O)(O)O[C@H]2O[C@H](CO)[C@@H](O)[C@H](O)[C@H]2O)[C@@H](O)[C@H]1O [ADPG, ADPglucose]
- Inhibition of the GP of E. coli [2]: not to be inhibited
- Activity (U/mg protein) ([2]; effector 2 mM): 8.3 U/mg protein
- % control [2, 4]: 104%

Molecule: Nc1ncnc2c1ncn2[C@@H]1O[C@H](COP(=O)(O)OP(=O)(O)O)[C@@H](O)[C@H]1O [ADP]
- Inhibition of the GP of E. coli [2]: not to be inhibited
- Activity (U/mg protein) ([2]; effector 2 mM): 7.0 U/mg protein
- % control [2, 4]: 88%

Molecule: Nc1ncnc2c1ncn2[C@@H]1O[C@H](COP(=O)(O)O)[C@@H](O)[C@H]1O [AMP]
- Inhibition of the GP of E. coli [2]: not to be inhibited
- Activity (U/mg protein) ([2]; effector 3 mM): 7.6 U/mg protein
- % control [2, 5]: 95%

Molecule: Nc1ncnc2c1ncn2[C@@H]1O[C@H](COP(=O)(O)OP(=O)(O)OP(=O)(O)O)[C@@H](O)[C@H]1O [ATP]
- Inhibition of the GP of E. coli [2]: not to be inhibited
- Activity (U/mg protein) ([2]; effector 2 mM): 4.8 U/mg protein
- % control [2, 4]: 60%

Molecule: Nc1ncnc2c1ncn2[C@@H]1O[C@@H]2COP(=O)(O)O[C@H]2[C@H]1O [Cyclic AMP]
- % control [2]: 91%
- Activity (U/mg protein) [2]: 7.3 U/mg protein

Molecule: O=C(COP(=O)(O)O)[C@@H](O)[C@H](O)[C@H](O)COP(=O)(O)O [Fructose-1,6-bisphosphate]
- Inhibition of the GP of E. coli [2]: not to be inhibited
- Activity (U/mg protein) ([2]; effector 2 mM): 9.0 U/mg protein
- % control [2, 4]: 113%

Molecule: O=C(CO)[C@@H](O)[C@H](O)[C@H](O)COP(=O)(O)O [Fructose-6-phosphate]
- Inhibition of the GP of E. coli [2]: not to be inhibited
- Activity (U/mg protein) ([2]; effector 2 mM): 8.4 U/mg protein
- % control [2, 4]: 105%

Molecule: O=C[C@H](O)[C@@H](O)[C@H](O)[C@H](O)COP(=O)(O)O [Glucose-6-phosphate]
- Inhibition of the GP of E. coli [2]: not to be inhibited
- Activity (U/mg protein) ([2]; effector 2 mM): 7.6 U/mg protein
- % control [2, 4]: 95%

Molecule: OC[C@H]1O[C@H](O[C@H]2[C@H](O)[C@@H](O)[C@@H](O[C@H]3[C@H](O)[C@@H](O)[C@@H](O[C@H]4[C@H](O)[C@@H](O)[C@@H](O[C@H]5[C@H](O)[C@@H](O)[C@@H](O[C@H]6[C@H](O)[C@@H](O)[C@@H](O[C@H]7[C@H](O)[C@@H](O)C(O)O[C@@H]7CO)O[C@@H]6CO)O[C@@H]5CO)O[C@@H]4CO)O[C@@H]3CO)O[C@@H]2CO)[C@H](O)[C@@H](O)[C@@H]1O (some centres unmarked) [Maltoheptose]
- Recognition as substrate by the GP of E. coli [1]: recognizes
- Products: G1P [1, 3]: 2.1 mM
- Products: Maltoheptose [1, 3]: 1.3 mM
- Products: Maltohexose [1, 3]: 1 mM
- Products: Maltopentaose [1, 3]: 0.4 mM
- Products: Maltose [1, 3]: b.d.l.
- Products: Maltotetraose [1, 3]: 0.2 mM
- Products: Maltotriose [1, 3]: b.d.l.

Molecule: OC[C@H]1O[C@H](O[C@H]2[C@H](O)[C@@H](O)[C@@H](O[C@H]3[C@H](O)[C@@H](O)[C@@H](O[C@H]4[C@H](O)[C@@H](O)[C@@H](O[C@H]5[C@H](O)[C@@H](O)[C@@H](O[C@H]6[C@H](O)[C@@H](O)C(O)O[C@@H]6CO)O[C@@H]5CO)O[C@@H]4CO)O[C@@H]3CO)O[C@@H]2CO)[C@H](O)[C@@H](O)[C@@H]1O (some centres unmarked) [Maltohexose]
- Recognition as substrate by the GP of E. coli [1]: recognizes
- Products: Maltoheptose [1, 6]: 0.1
- Products: G1P [1, 3]: 1.7 mM
- Products: Maltohexose [1, 3]: 2.1 mM
- Products: Maltopentaose [1, 3]: 0.5 mM
- Products: Maltose [1, 3]: b.d.l.
- Products: Maltotetraose [1, 3]: 0.6 mM
- Products: Maltotriose [1, 3]: b.d.l.

Molecule: OC[C@H]1O[C@H](O[C@H]2[C@H](O)[C@@H](O)[C@@H](O[C@H]3[C@H](O)[C@@H](O)[C@@H](O[C@H]4[C@H](O)[C@@H](O)C(O)O[C@@H]4CO)O[C@@H]3CO)O[C@@H]2CO)[C@H](O)[C@@H](O)[C@@H]1O (some centres unmarked) [Maltotetraose]
- Recognition as substrate by the GP of E. coli [1]: does not act on
- Products: G1P [1, 3]: b.d.l.
- Products: Maltose [1, 3]: b.d.l.
- Products: Maltotetraose [1, 3]: 5 mM
- Products: Maltotriose [1, 3]: b.d.l.

Molecule: O=P(O)(O)OP(=O)(O)O [Pyrophosphate]
- Activity (U/mg protein) ([2]; effector 3 mM): 7.8 U/mg protein
- % control [2, 5]: 98%

Molecule: Glycogen
- Recognition as substrate by the GP of E. coli [1]: recognizes
- Products: G1P [1, 3]: 0.5 mM
- Products: Glycogen [1, 3]: 4.5 mM
- Products: Maltoheptose [1, 3]: b.d.l.
- Products: Maltohexose [1, 3]: b.d.l.
- Products: Maltopentaose [1, 3]: b.d.l.
- Products: Maltose [1, 3]: b.d.l.
- Products: Maltotetraose [1, 3]: b.d.l.
- Products: Maltotriose [1, 3]: b.d.l.

Molecule: Maltopentaose
- Recognition as substrate by the GP of E. coli [1]: recognizes
- Products: Maltohexose [1, 6]: 0.2
- Products: G1P [1, 3]: 1.6 mM
- Products: Maltoheptose [1, 3]: b.d.l.
- Products: Maltopentaose [1, 3]: 2.2 mM
- Products: Maltose [1, 3]: b.d.l.
- Products: Maltotetraose [1, 3]: 1.0 mM
- Products: Maltotriose [1, 3]: b.d.l.

Molecule: Maltotriose
- Recognition as substrate by the GP of E. coli [1]: does not act on
- Products: G1P [1, 3]: b.d.l.
- Products: Maltose [1, 3]: b.d.l.
- Products: Maltotriose [1, 3]: 5 mM

Molecule: starch
- Recognition as substrate by the GP of E. coli [1]: recognizes

Source: patent US8841513B2, “Procedure for producing transgenic plants providing high starch content and yield and high amylose/amylopectin balance” (priority 2008, dated 2014)
